Reference: ChEMBL document CHEMBL1134203, “Discovery of potent and selective succinyl hydroxamate inhibitors of matrix metalloprotease-3 (stromelysin-1)” (Bioorg Med Chem Lett, 2001)
pIC50: −log10 of the molar value.

Columns and labels:
[1] = biological target: Matrix metalloproteinase-14 (Homo sapiens, UniProt P50281)
[2] = biological target: Matrix metalloproteinase-9 (Homo sapiens, UniProt P14780)
Chain of Matrix metalloproteinase-9 (P14780 whole entry): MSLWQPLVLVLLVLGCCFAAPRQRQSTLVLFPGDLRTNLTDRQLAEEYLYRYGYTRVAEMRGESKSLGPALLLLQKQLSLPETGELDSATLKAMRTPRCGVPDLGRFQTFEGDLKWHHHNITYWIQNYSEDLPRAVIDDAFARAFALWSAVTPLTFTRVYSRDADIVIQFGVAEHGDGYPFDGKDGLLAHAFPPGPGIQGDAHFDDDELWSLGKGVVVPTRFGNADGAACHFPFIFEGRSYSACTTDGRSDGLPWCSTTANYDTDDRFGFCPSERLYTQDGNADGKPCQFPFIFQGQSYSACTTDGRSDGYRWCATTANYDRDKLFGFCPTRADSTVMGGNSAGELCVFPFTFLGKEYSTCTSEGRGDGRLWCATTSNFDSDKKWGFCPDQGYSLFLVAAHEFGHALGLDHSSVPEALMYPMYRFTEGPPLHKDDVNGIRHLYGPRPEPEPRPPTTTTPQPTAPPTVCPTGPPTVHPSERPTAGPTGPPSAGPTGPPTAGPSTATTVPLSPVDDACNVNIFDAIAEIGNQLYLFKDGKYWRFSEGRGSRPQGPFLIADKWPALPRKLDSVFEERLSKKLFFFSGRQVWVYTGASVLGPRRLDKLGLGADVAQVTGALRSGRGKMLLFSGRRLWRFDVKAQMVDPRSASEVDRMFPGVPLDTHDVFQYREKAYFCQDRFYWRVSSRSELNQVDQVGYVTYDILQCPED

For `Cc1cc(CCC[C@H](CC(=O)NO)C(=O)N[C@H](C(=O)N[C@H](C)c2ccccc2)C(C)(C)C)ccc1-c1ccccc1`, the pIC50 [1] was 5.72 and the pIC50 [2] was 6.08.
